Assay results reported in patent publication US11266710B2, “Angio-3 for treatment of retinal angiogenic diseases” (SINGAPORE HEALTH SERVICES PTE LTD, priority 2017, dated 2022).

Tested on: laser-induced CNV in C57/BL6J (B6J) wild type mice
Test: Laser-induced choroidal neovascularization (CNV) model in mice, area of leakage by FFA
Assay type: in vivo
Settings: for Area of Leakage (mean) Week 1 / Area of Leakage (mean) Week 4: laser-induced CNV mice; for % Reduction (area of leakage): vehicle control = 0%
Description: FIG. 3A is a schematic of the experimental design on the efficacy of Angio-3 in a laser-induced choroidal neovascularization (CNV) model in mice (B6J WT mice). FIG. 3B are FFA images of baseline and at different time points post treatment. IV single injection of 100 μL of Angio-3 (25 mg/Kg Bwt) was given at Day 0 (prevention mode) and 4 days after laser (regression mode) and followed for 10 weeks. FIG. 3C is a graph showing the area of leakage by each eye for various groups. FIG. 3D are graphs of the mean area of leakage of all batches for each group. […] The attenuation retinal vascularization was better than scrambled peptide. n=6 eyes per batch; n=3 batches. Values are expressed as means±s.e.m., **P<0.01, *P<0.05, student's t-test. FIG. 3E is a graph of the result of the Retinal Function Test that measures ERG changes in Angio-3 treated and control.
FIG. 4A is a schematic of the experimental design on the efficacy of Angio-3 by IVT administration. […]
FIG. 11 A are FFA images of baseline and at different time points post treatment. Mice received single IVT injection of Angio-3 (at a dose of 1 μg in 1 μl or 100 ng in 1 μl), and chemically modified Angio-3 peptides Pep-N (at doses of 5 μg in μl; 1 μg in μl; and 100 ng in 1 μl, respectively) and Pep-Q peptides (at doses of 5 μg in μl; 1 μg in μl; and 100 ng in 1 μl, respectively). FIG. 11 B is a graph of the area of leakage by each eye. Single dose attenuates retinal angiogenesis in laser-induced mice CNV model via IVT route till 4 weeks. […] Eylea is the positive control. n=18 eyes per group; Values are expressed as means±s.e.m. n=3 independent experiment, **P<0.01, *P<0.05, student's t-test.
Laser induced choridal neo-vascularization (CNV) in C57/BL6J (B6J) wild type mice (n=90).
In B6J mice, single injection of 100 μl volume at 25 mg/kg Bwt concentration Angio-3 was injected via intravenous (i/v) route and this was tested in both Preventive mode (before laser) and Regression mode (4 days after laser). […]
Angio-3 was also injected via intravitreal (IVT) route, single injection of 1 μl volume at 2 different doses; 1 μg (High dose) and 100 ng (Low dose).
4 laser photocoagulation sites were placed concentrically around the optic disc of both eyes to induce CNVs. A diode laser (810 nm) was used with a relative potency scale of 120 mW for mice and 250 mW for rats, an exposure time of 0.05 s, and a spot size of […]. Laser spots were focused with crystal covers to avoid laser beam dispersion. Bubble formation was confirmed the rupture of Bruch's membrane.
Fundus photography and fundus fluorescein angiography (FFA) was imaged using a MICRON IV fundus camera (Phoenix Laboratories USA). For FFA, animals were intraperitoneally injected with 10% sodium fluorescein at a dose of 0.01 ml per 5-6 gm body weight.
In B6J mice, single intravitreous (IVT) injection of 100 ng, 1 μg, 5 μg PEP-Q, PEP-N (modified Angio-3), Angio-3 and Eylea were executed and this was tested in Prevention mode (before laser) Method of Llser induced CNV model and injection was described as above.

[1] = 100 ng single IVT, prevention mode
[2] = 1 μg single IVT, prevention mode
[3] = 5 μg single IVT, prevention mode

Substance: Eylea: Eylea (anti-VEGF), positive control; clinical compound [reference compound]
- Area of Leakage (mean) Week 1 [1]: 10273.37
- Area of Leakage (mean) Week 4 [1]: 3433.52
- % Reduction (area of leakage) (100 ng single IVT): 28.40%
- Area of Leakage (mean) Week 1 [2]: 12502.09
- Area of Leakage (mean) Week 4 [2]: 3005.85
- % Reduction (area of leakage) (1 μg single IVT): 37.77%
- Area of Leakage (mean) Week 1 [3]: 11724.39
- Area of Leakage (mean) Week 4 [3]: 1834.08
- % Reduction (area of leakage) (5 μg single IVT): 46.17%
- choroidal angiogenesis (B6J mice, single intravitreal injection at dose 100 ng, 1 g, and 5 μg, prevention mode): superior efficacy that is similar to PEP-Q and PEP-N
